Source: patent publication US12391919B2, “Culture medium, coating matrix and method for maturing midbrain dopaminergic progenitor cells” (NUWACELL BIOTECHNOLOGIES CO., LTD., priority 2022, dated 2025)

Tested on: imDAPs
Assay: Flow cytometry (FACS) analysis of FOXA2 expression in expanded imDAPs
Type: cell-based, human
Procedure: • 1. Individualize and collect cells by either Accutase or TrypLE treatment. • 2. Wash cells with 1 ml PBS and pellet cells at 250×g for 15 sec. • 3. Remove supernatant, add ˜200 μl of 4% PFA, mix and fix for 10 min at RT. • 4. Pellet cells at 350×g for 5 min. • 5. Wash cells by 1 ml of FACS buffer and pellet cells at 350×g for 5 min. • 6. Remove supernatant, add 200 μl/tube of FACS buffer/0.1% TritonX, mix for 10 min at RT. • 7. Wash cells by 1 ml of FACS buffer and pellet cells at 350×g for 5 min. • 8. Remove supernatant, add 200 μl/tube of primary antibody diluted in FACS buffer, mix gently, and incubate for 30 min at RT. • 9. Wash cells by 1 ml of FACS buffer and pellet cells at 350×g for 5 min. • 10. Remove supernatant, and add 200 μl of secondary antibody diluted in FACS buffer, mix gently, and incubate for 30 min at RT. • 11. Wash cells by 1 ml of FACS buffer and pellet cells at 300×g for 5 min. • 12. Remove supernatant, add 200 μl of FACS buffer, and run samples on the flow cytometry. (2) qRT-PCR • 1. For qRT-PCR analysis of mRNA gene expression, RNA should be harvested from at least 2×10^6 cells. • 2. Harvest cells, add 350 μl of buffer RLT+1% (vol/vol) s-mercaptoethanol to the well, transfer the lysate to a 1.5 ml tube, and put it immediately on ice. • 3. Perform RNA extraction using the Tiangen Kit (DP430), and follow the manufacturer's protocol ‘Purification of total RNA from animal and human cells’. • 4. When the RNA extraction was completed, determine the RNA concentration using a Nanodrop instrument. • 5. Perform the first-strand cDNA synthesis reaction with 1 μg of RNA using the HiScript TM II Q RT SuperMIX for qPCR(+gDNA wiper) Kit (Vazyme, #R223-01) for RT-qPCR. Follow the manufacturer's ‘First-Strand cDNA Synthesis’ protocol. This reaction would yield a 20 μl product. • 6. Dilute the 10 μl cDNA product in 80 μl of nuclease-free water. • 7. Pipette the diluted cDNA product (1 μl), Sybr green master mix (5 μl, Transgen, #AQ131) and 0.95 μM reverse/forward primer mix (4 μl) into a 384-well PCR plate in triplicate, either manually or using an automated pipetting robot. The complete primer panel included the target genes and the housekeeping gene (RPL13A). In the analysis, also included a sample of undifferentiated hPSCs to determine the gene expression levels relative to the expression in hPSCs. • 8. Analyze the samples by running a quantitative PCR on the LightCycler 480 instrument using a 40× cycle two-step protocol with a 60° C., 60 sec annealing/elongation step and a 95° C., 30 sec denaturation step. The average CT values from the three technical replicates were used for calculations of relative gene expression using the ΔΔCT method. For each gene, calculate the FC of the differentiated samples relative to the undifferentiated control sample using the housekeeping gene for normalization. Next, calculate the average of the FC values on the basis of the housekeeping gene. (3) Immunocytochemical Analysis • 1. Cell fixation: Remove the medium from the cells and wash with PBS. Add 4% (wt/vol) PFA (e.g., 200 μl to a well in a 48-well plate) and incubate at room temperature (RT) for 15 min. after incubation, wash the cells three times in PBS. • 2. Blocking: Remove PBS from the wells and add blocking solution to the cells, add enough volume to cover the cells. Leave the cells in blocking solution for 1 h at RT. • 3. Primary antibodies incubation: Remove the blocking solution from the cells and add the primary antibody solutions (˜100 μl/cm^2). […]

c1ccc2c(-c3cnn4cc(-c5ccc(N6CCNCC6)cc5)cnc34)ccnc2c1 [LDN193189]
expression of Foxa2 (percentage of Foxa2+ imDAPs) (Example 9, P1 cells compared with P0 cells, DLL4/VTN-coated, FIG. 5C): slightly decreased the expression of FOXA2 for imDAPs

DLL4: Notch agonist used as second coating matrix
FOXA2 expression (percentage of Foxa2+ imDAPs) (Example 8, VTN or DLL4/VTN coating, with or without SB431542, FIG. 4C): could improve FOXA2 expression
